Measured values published in patent US20020065227A1, “Charged compounds comprising a nucleic acid binding moiety and uses therefor” (priority 2000, published 2002).
Values after ≈ are worked out from the molar mass of the structure shown. Values joined by “and” are separate entries in the source; they are usually repeats but may differ in a detail not shown here. Equal entries are not always repeated.

Tests used:
[1] = tested on: Candida albicans (38247) (Polyene resistant); test: MIC, antifungal assay; format: cell-based
[2] = tested on: Staphylococcus aureus (33591) (methicillin resistant); test: MIC, NCCLS broth microdilution; format: cell-based; settings: Staphylococcus aureus (33591), methicillin resistant (MRSA)
[3] = tested on: Peptostreptococcus asaccharolytics (29743); test: MIC, NCCLS broth microdilution; format: cell-based; settings: anaerobe
[4] = tested on: Listeria monocytogenes (19115); test: MIC, NCCLS broth microdilution; format: cell-based
Candida albicans (90028) [5] = test: MIC, antifungal assay; format: cell-based
[6] = tested on: Enterococcus faecalis (29212); test: MIC, NCCLS broth microdilution; format: cell-based; settings: Enterococcus faecalis (29212)
[7] = tested on: Enterococcus faecium (51559) (vacomycin resistant); test: MIC, NCCLS broth microdilution; format: cell-based; settings: Enterococcus faecium (51559), vancomycin resistant
ACTACT = test: DNase I footprint titration, ACTACT site; format: binding; settings: equilibrium association constant Ka; pH 7.0, 22° C.
[8] = tested on: Clostridium perfringens (13124)
[9] = tested on: Trichophyto tonsurans (28942); test: MIC, antifungal assay; format: cell-based
ATTACT = test: DNase I footprint titration, ATTACT site; format: binding; settings: equilibrium association constant Ka; pH 7.0, 22° C.
[10] = tested on: Streptococcus pneumoniae (51422) (multiple drug resistant); test: MIC, NCCLS broth microdilution; format: cell-based
Esherichia coli (25922) = test: MIC, NCCLS broth microdilution; format: cell-based, Escherichia coli; settings: Escherichia coli (25922)
[11] = tested on: Saccharomyces cerevisiae (44773); test: MBC according to NCCLS guideline; format: cell-based
AATACT = test: DNase I footprint titration, AATACT site; format: binding; settings: equilibrium association constant Ka; pH 7.0, 22° C.
[12] = tested on: Staphylococcus epidermidis (12228)
[13] = tested on: Corynebacterium Group A (49676); test: MIC, NCCLS broth microdilution; format: cell-based; settings: Corynebacterium Group A (49676)
Bacillus cereus (11778) [14] = test: MBC according to NCCLS guideline; format: cell-based
[15] = tested on: Staphylococcus aureus (33591) (methicillin resistant)
Candida albicans (90028) [16] = test: MBC according to NCCLS guideline; format: cell-based
Bacillus cereus (11778) [17] = test: MIC, NCCLS broth microdilution; format: cell-based; settings: Bacillus cereus (11778)
all species tested = test: Microbicidal activity (MIC versus MBC), all species tested; format: cell-based; settings: in words; from difference between MICs and MBCs
From the text: The minimal bactericidal concentration (MBC) has been determined for some of these designed compounds according to NCCLS guideline (Lorian, V. 1996 Antibiotics in laboratory medicine (The Williams & Wilkins Co., Baltimore, Md.)). The difference between the MICs and the MBCs has been established as an index of the bactericidal activity of an antibiotic.

[18] = tested on: Streptococcus pneumoniae (49619); test: MBC according to NCCLS guideline; format: cell-based
[19] = tested on: Propionibacterium acnes (33179); test: MIC, NCCLS broth microdilution; format: cell-based; settings: anaerobe
[20] = tested on: Haemophilus influenzae (49247); test: MIC, NCCLS broth microdilution; format: cell-based; settings: Haemophilus influenzae (49247)
[21] = tested on: Corynebacterium Group A (49676)
[22] = tested on: Peptostreptococcus asaccharolytics (29743)
[23] = tested on: Aspergillus niger (10535); test: MIC, antifungal assay; format: cell-based
[24] = tested on: Enterococcus faecalis (29212); test: MBC according to NCCLS guideline; format: cell-based
[25] = tested on: Saccharomyces cerevisiae (44773); test: MIC, antifungal assay; format: cell-based
[26] = tested on: Paecilomyces variotii (22319); test: MIC, antifungal assay; format: cell-based
[27] = tested on: Enterococcus faecium (51559) (vacomycin resistant); settings: vancomycin resistant
[28] = tested on: different species of bacteria and fungi; settings: exception: Gram-negative bacteria such as Escherichia and Pseudomonas
[29] = tested on: Streptococcus pneumoniae (49619); test: MIC, NCCLS broth microdilution; format: cell-based; settings: Streptococcus pneumoniae (49619)
[30] = tested on: Streptococcus pyogenes (49339)
Bacillus subtilis (6633) [31] = test: MIC, NCCLS broth microdilution; format: cell-based; settings: Bacillus subtilis (6633)
Bacillus subtilis (6633) [32] = tested on: Bacillus subtilis (6633)
AGTACT = test: DNase I footprint titration, AGTACT site; format: binding; settings: equilibrium association constant Ka; pH 7.0, 22° C.
[33] = tested on: Streptococcus pyogenes (49339); test: MIC, NCCLS broth microdilution; format: cell-based; settings: Streptococcus pyogenes (49339); Table Ia: Streptococcus Group A(49339)
[34] = tested on: Staphylococcus aureus (29213); test: MBC according to NCCLS guideline; format: cell-based
[35] = tested on: Staphylococcus aureus (29213); test: MIC, NCCLS broth microdilution; format: cell-based; settings: Staphylococcus aureus (29213)
[36] = tested on: Propionibacterium acnes (33179)
[37] = tested on: Pseudomona aeruginosa (27853); test: MIC, NCCLS broth microdilution; format: cell-based; settings: Pseudomona aeruginosa (27853)
[38] = tested on: Staphylococcus epidermidis (12228); test: MIC, NCCLS broth microdilution; format: cell-based; settings: Staphylococcus epidermidis (12228)
Fusarium solani (36031) = test: MIC, antifungal assay; format: cell-based
Bacillus anthracis = format: cell-based
[39] = tested on: Clostridium perfringens (13124); test: microbe, parasite or virus in culture; format: cell-based; settings: Clostridium perfringens (13124), anaerobe

CN(C)CCCNC(=O)c1cc(NC(=O)c2cc(NC(=O)c3cc(NC(=O)c4nsc(NCCCCN)c4Cl)cn3C)cn2C)cn1C [V-a]
MIC [1]: 4 µg/mL (≈ 5.71 µM)
MIC [2]: 2 µg/mL (≈ 2.86 µM)
MIC [3]: 0.125 µg/mL (≈ 0.179 µM)
MIC [4]: 4 µg/mL (≈ 5.71 µM)
MIC (Candida albicans (90028) [5]): 4 µg/mL (≈ 5.71 µM)
MIC [6]: 1 µg/mL (≈ 1.43 µM)
MIC [7]: 1 µg/mL (≈ 1.43 µM)
Binding Constant, sequence ACTACT (ACTACT): 1e+08 M⁻¹
MBC [8]: 2 µg/mL (≈ 2.86 µM)
MIC [9]: 16 µg/mL (≈ 22.8 µM)
Binding Constant, sequence ATTACT (ATTACT): 1e+08 M⁻¹
MIC [10]: 8 µg/mL (≈ 11.4 µM)
MIC (Esherichia coli (25922)): >128 µg/mL
MBC [11]: 8 µg/mL (≈ 11.4 µM)
Binding Constant, sequence AATACT (AATACT): 1e+08 M⁻¹
MBC [12]: 1 µg/mL (≈ 1.43 µM)
MIC [13]: 0.25 µg/mL and 0.25 to 0.5 µg/mL
MBC (Bacillus cereus (11778) [14]): 0.5 µg/mL (≈ 0.714 µM)
MBC [15]: 4 µg/mL (≈ 5.71 µM)
MBC (Candida albicans (90028) [16]): 4 µg/mL (≈ 5.71 µM)
MIC (Bacillus cereus (11778) [17]): 0.25 µg/mL (≈ 0.357 µM)
Microbicidal activity (all species tested): microbicidal agents for all species tested
MBC [18]: 0.5 µg/mL (≈ 0.714 µM)
MIC [19]: 2 µg/mL and 4 µg/mL
MIC [20]: 32 µg/mL (≈ 45.7 µM)
MBC [21]: 0.25 µg/mL (≈ 0.357 µM)
MBC [22]: 0.25 µg/mL (≈ 0.357 µM)
MIC [23]: 2 µg/mL (≈ 2.86 µM)
MBC [24]: >4 µg/mL
MIC [25]: 8 µg/mL (≈ 11.4 µM)
MIC [26]: 0.5 µg/mL (≈ 0.714 µM)
MBC [27]: 2 to 4 µg/mL
MIC for most species tested [28]: less than 8 μg/mL
MIC [29]: 0.5 µg/mL (≈ 0.714 µM)
MBC [30]: 0.125 µg/mL (≈ 0.179 µM)
MIC (Bacillus subtilis (6633) [31]): 0.25 µg/mL and 0.25 to 0.5 µg/mL
MBC (Bacillus subtilis (6633) [32]): 0.5 µg/mL (≈ 0.714 µM)
Binding Constant, sequence AGTACT (AGTACT): 3e+09 M⁻¹
MIC [33]: 0.125 µg/mL (≈ 0.179 µM)
MBC (Micrococcus luteus (381)): 0.5 µg/mL (≈ 0.714 µM)
MBC [34]: 2 µg/mL (≈ 2.86 µM)
MIC [35]: 2 µg/mL (≈ 2.86 µM)
MBC [36]: 8 µg/mL (≈ 11.4 µM)
MIC [37]: >128 µg/mL
MIC [38]: 1 µg/mL (≈ 1.43 µM)
MIC (Fusarium solani (36031)): 4 µg/mL (≈ 5.71 µM)
MIC (Bacillus anthracis): 4 µg/mL (≈ 5.71 µM)
MIC [39]: 1 µg/mL (≈ 1.43 µM)
